We go through seven compounds from patent publication US11052087B2, “Anti-HIV compounds” (priority 2018, dated 2021).

For series [1], the system named is HIV-1 (IIIB) in MT-4 cells. Briefly: MT-4 HIV Assay. The format is cell-based. On the procedure: Compounds were tested in a high-throughput 384-well assay format for their ability to inhibit the replication of HIV-1 (IIIB) in MT-4 cells. Compounds were serially diluted (1:3) in DMSO on 384-well polypropylene plates and further diluted 200-fold into complete RPMI media (10% FBS, 1% P/S) using the Biotek Micro Flow and Agilent ECHO acoustic dispenser. Each plate contained up to 8 test compounds, with negative (No Drug Control) and 5 μM AZT positive controls. MT-4 cells were pre-infected with 10 μL of either RPMI (mock-infected) or a fresh 1:250 dilution of an HIV-1 (IIIB) concentrated virus stock. Infected and uninfected MT-4 cells were further diluted in complete RPMI media and added to each plate using a Micro Flow dispenser. After 5 days incubation in a humidified and temperature controlled incubator (37° C.), Cell Titer Glo (Promega) was added to the assay plates to quantify the amount of luciferase. EC50 values were defined as the compound concentration that causes a 50% decrease in luminescence signal, and were calculated using a sigmoidal dose-response model to generate curve fits.

A short description of series [2]: Kinetic Solubility Analysis (CLND). The conditions noted are these: 26 °C, kinetic from dmso stock. The format is physicochemical. On the procedure: Kinetic Solubility Analysis (CLND) Buffer Preparation:
0.1N HCl: Hydrochloric acid, 0.1N standardized solution.
1×PBS, 7.4: Phosphate Buffered Saline solution 10×, PBS 50 mL was added to approximately 450 mL HPLC grade H2O. The volume of the solution was then adjusted to 500 mL for a total dilution factor of 1:10 and a final PBS concentration of IX.
Kinetic Solubility from DMSO Stocks:
The final DMSO concentration is 1.0% and maximum theoretical compound concentration is 100 μM (assuming stock concentration of 10 mM). The filter plate was sealed. […] The collection plate was sealed for analysis. Filtrates were injected into the nitrogen detector for quantification.
The equimolar nitrogen response of the detector was calibrated using standards which spanned the dynamic range of the instrument from […] nitrogen. The filtrates were quantified with respect to this calibration curve. The calculated solubility values were corrected for background nitrogen present in the DMSO and the media used to prepare the samples.

Series [3] in a line: Liver microsomal stability (human). In kind it is in vitro ADME. The conditions noted are these: human liver microsomes 0.5 mg/mL, 1 μM compound, NADPH-regenerating system, 37° C. As for the experimental part:
(§1) Liver Microsomal Stability Protocol
(§2) Test compounds and one control compound (verapamil) were tested in 3 different species in duplicate sets.
(§3) Test compound concentration: 1 μM; Protein concentration: 0.5 mg/mL (for rat and human liver microsomes); Cofactor: NADPH-Regenerating system (NRS) solution. Time-points: 2, 12, 25, 45, and 65 minutes.
(§4) Reaction composition (in each incubation well) contains:
(§5) At an incubation temperature of 37° C., the reaction was started with addition of NADPH Regeneration System, at each time point, 25 μL of the reaction mixture was removed and added to a plate with 225 μL quenching solution (50% MeOH, 25% ACN, 25% H2O, and 200 nM labetalol as internal standard). After plates were vortexed, they were centrifuged for 30 minutes to remove proteins. About 100 μL supernatant was removed to a new plate and diluted with 150 μL water. About 20 μL of the mixture was injected into an LC/MS/MS system to monitor the compound's response. In vitro measured t1/2 was used to calculate Clint values.

Series [4] can be described thus: Liver microsomal stability (rat). The format is in vitro ADME. Particulars: rat liver microsomes 0.5 mg/mL, 1 μM compound, NADPH-regenerating system, 37° C. As for the experimental part:
as §1, §2, §3, §4, §5
(In general: Microsomes from liver hold many membrane-bound enzymes, among them those of drug oxidation.)

Series [5] is described as follows: Rat PK. The format is in vivo. The conditions noted are these: compound 14 oral solution, 75 mg-eq/kg dose group, male SD rats, LC/MS/MS. On the procedure:
Compound 14 was formulated in a solution formulation (84% 10 mM HCl; 15% 2-Hydroxypropyl-β-Cyclodextrin; 1% Dimethyl sulfoxide pH 2.0) and administered orally at 2.5 and 75 mg-eq/kg to a dosing groups consisting of three male SD rats. At dosing, the animals weighed between 270 and 350 g. […] Trace amounts of compound 14 were detected in plasma in the 75 mg-eq/kg dose group.

A short description of series [6]: in vivo. Particulars: beagle, dog, po.
Description: Pharmacokinetic Profiling Dog PK
(§6) Compound 11 was formulated in a suspension formulation (1% HPMC and 0.05% Tween 20 in DI Water) and administered orally at 10 mg-eq/kg to a dosing group consisting of three non-naïve male beagle dogs. At dosing, the animals weighed between 9 to 12 kg. The animals were fasted overnight prior to dose administration and up to four hours after dosing. Serial venous blood samples (approximately 1.0 mL each) were obtained at pre-dose, 0.25, 0.50, 1, 2, 4, 6, 8, 12, and 24 hours post-dose. The blood samples were collected into Vacutainer™ tubes containing EDTA-K2 as the anti-coagulant and were immediately placed on wet ice pending centrifugation for plasma. An LC/MS/MS method was used to measure the concentration of compound 11 and compound D in plasma. […] In a second experiment, compound D was dosed orally as a suspension using the same formulation and dose level.
For series [7] the following is noted: male, beagle, dog, in vivo.
Description: Pharmacokinetic Profiling Dog PK
as §6
[8] abbreviates: Human immunodeficiency virus 1, MT4, 120 h, HIV-1 (IIIB) replication in MT-4 cells, 5 days incubation, Cell Titer Glo, read-out: EC50.
Where [9] appears, read: 0.1N HCl, pH 1, simulated gastric fluid, read-out: Solubility, HCl, pH 1.0, RT.
The mark [10] stands for this setting: PBS, pH 7.4, aqueous buffer, read-out: Solubility, PBS, pH 7.4, RT.

Each structure is given as a SMILES string. In brackets after ≈: the same amount, converted by molar mass. Where a name gives a salt, the structure may show the parent alone. Read-outs that look alike come from different tables or passages of the source. Some results are limits rather than exact numbers.

As usually defined, the EC50 is the concentration giving half of the maximal effect. The term solubility denotes how much of the substance goes into solution per volume. As to `COC(=O)N[C@H](C(=O)N[C@@H](Cc1ccc(C#Cc2cnc(N3CC4CCC(C3)N4C3COC3)nc2)cc1)[C@H](CN(Cc1c(F)cc(-c2ccn(C(F)F)n2)cc1F)NC(=O)[C@@H](NC(=O)OC)C(C)(C)C(F)(F)F)OC(=O)c1ccccn1)C(C)(C)C(F)(F)F` [Example 6, (5S,10S,11S,14S)-8-(4-(1-(difluoromethyl)-1H-pyrazol-3-yl)-2,6-difluorobenzyl)-11-(4-((2-(8-(oxetan-3-yl)-3,8-diazabicyclo[3.2.1]octan-3-yl)pyrimidin-5-yl)ethynyl)benzyl)-3,6,13,16-tetraoxo-5,14-bis(1,1,1-trifluoro-2-methylpropan-2-yl)-2,17-dioxa-4,7,8,12,15-pentaazaoctadecan-10-yl picolinate], the EC50 in series [1] (setting [8]) turned out to be 0.278 µM. For the same compound, the results for the solubility at 24 h in series [2] (setting [9]) and in series [2] (setting [10]) were 38.5 µM (≈ 48.6 µg/mL) and under 1 µM, respectively. Further, the “Human Pred Cl. (L/H/kg)” value in series [3] is listed as 0.29 L/H/kg. Besides, the “Rat. Pred. Cl. (L/H/kg)” value in series [4] was under 0.4 L/H/kg.
As for `COC(=O)N[C@H](C(=O)N[C@@H](Cc1ccc(C#Cc2cnc(N3CC4CCC(C3)N4C3COC3)nc2)cc1)[C@H](CN(Cc1c(F)cc(-c2ccn(C(F)F)n2)cc1F)NC(=O)[C@@H](NC(=O)OC)C(C)(C)C(F)(F)F)OC(=O)CN(C)C(=O)[C@@H](N)Cc1ccccc1)C(C)(C)C(F)(F)F` [Example 14, (2S,3S)-1-(1-(4-(1-(difluoromethyl)-1H-pyrazol-3-yl)-2,6-difluorobenzyl)-2-((S)-4,4,4-trifluoro-2-((methoxycarbonyl)amino)-3,3-dimethylbutanoyl)hydrazinyl)-4-(4-((2-(8-(oxetan-3-yl)-3,8-diazabicyclo[3.2.1]octan-3-yl)pyrimidin-5-yl)ethynyl)phenyl)-3-((S)-4,4,4-trifluoro-2-((methoxycarbonyl)amino)-3,3-dimethylbutanamido)butan-2-yl N-(L-phenylalanyl)-N-methylglycinate], the midpoint of the response in series [1] (Human immunodeficiency virus 1, IIIB, MT4, 120 h), the EC50, lay at 0.00654 µM. For the same compound, in series [5], the “concentration of compound 14 in plasma” value is reported as “Trace amounts”.
Consider `COC(=O)N[C@H](C(=O)N[C@@H](Cc1ccc(C#Cc2cnc(N3CC4CCC(C3)N4C3COC3)nc2)cc1)[C@H](CN(Cc1c(F)cc(-c2ccn(C(F)F)n2)cc1F)NC(=O)[C@@H](NC(=O)OC)C(C)(C)C(F)(F)F)OC(=O)CCCN1CCOCC1)C(C)(C)C(F)(F)F` [Example 2, (5S,10S,11S,14S)-8-(4-(1-(difluoromethyl)-1H-pyrazol-3-yl)-2,6-difluorobenzyl)-11-(4-((2-(8-(oxetan-3-yl)-3,8-diazabicyclo[3.2.1]octan-3-yl)pyrimidin-5-yl)ethynyl)benzyl)-3,6,13,16-tetraoxo-5,14-bis(1,1,1-trifluoro-2-methylpropan-2-yl)-2,17-dioxa-4,7,8,12,15-pentaazaoctadecan-10-yl 4-morpholinobutanoate], for which the EC50 in series [1] (setting [8]) came to 0.0566 µM. Further, the solubility at 24 h is 81 µM (≈ 106 µg/mL) in series [2] (setting [9]) and under 1 µM in series [2] (setting [10]). The “Human Pred Cl. (L/H/kg)” value in series [3] is 0.53 L/H/kg. Moreover, the “Rat. Pred. Cl. (L/H/kg)” value in series [4] is given as 0.84 L/H/kg.
For `COC(=O)N[C@H](C(=O)N[C@@H](Cc1ccc(C#Cc2cnc(N3CC4CCC(C3)N4C3COC3)nc2)cc1)[C@H](CN(Cc1c(F)cc(-c2ccn(C(F)F)n2)cc1F)NC(=O)[C@@H](NC(=O)OC)C(C)(C)C(F)(F)F)OC=O)C(C)(C)C(F)(F)F` [Example 1, (5S,10S,11S,14S)-8-(4-(1-(difluoromethyl)-1H-pyrazol-3-yl)-2,6-difluorobenzyl)-11-(4-((2-(8-(oxetan-3-yl)-3,8-diazabicyclo[3.2.1]octan-3-yl)pyrimidin-5-yl)ethynyl)benzyl)-3,6,13,16-tetraoxo-5,14-bis(1,1,1-trifluoro-2-methylpropan-2-yl)-2,17-dioxa-4,7,8,12,15-pentaazaoctadecan-10-yl formate] the same measures were 0.00462 µM, 20 µM, under 1 µM, 0.37 L/H/kg and under 0.4 L/H/kg.
One may read the bioavailability as dose-corrected exposure relative to a reference, in per cent. Lower therefore signals poor availability. Consider `COC(=O)N[C@H](C(=O)N[C@@H](Cc1ccc(C#Cc2cnc(N3CC4CCC(C3)N4C3COC3)nc2)cc1)[C@@H](O)CN(Cc1c(F)cc(-c2ccn(C(F)F)n2)cc1F)NC(=O)[C@@H](NC(=O)OC)C(C)(C)C(F)(F)F)C(C)(C)C(F)(F)F` [Compound D, methyl ((5S,8S,9S,14S)-11-(4-(1-(difluoromethyl)-1H-pyrazol-3-yl)-2,6-difluorobenzyl)-16,16,16-trifluoro-9-hydroxy-15,15-dimethyl-8-(4-((2-(8-(oxetan-3-yl)-3,8-diazabicyclo[3.2.1]octan-3-yl)pyrimidin-5-yl)ethynyl)benzyl)-3,6,13-trioxo-5-(1,1,1-trifluoro-2-methylpropan-2-yl)-2-oxa-4,7,11,12-tetraazahexadecan-14-yl)carbamate, reference compound], for which the bioavailability in series [6] is 2.6 ± 1.1%. The values for the solubility at 24 h in series [2] (setting [9]) and in series [2] (setting [10]) were 19.5 µM (≈ 22.5 µg/mL) and under 1 µM, respectively.
Take `COC(=O)N[C@H](C(=O)N[C@@H](Cc1ccc(C#Cc2cnc(N3CC4CCC(C3)N4C3COC3)nc2)cc1)[C@H](CN(Cc1c(F)cc(-c2ccn(C(F)F)n2)cc1F)NC(=O)[C@@H](NC(=O)OC)C(C)(C)C(F)(F)F)OC(=O)OCOP(=O)(O)O)C(C)(C)C(F)(F)F` [Example 11, methyl ((5S,10S,11S,14S)-8-(4-(1-(difluoromethyl)-1H-pyrazol-3-yl)-2,6-difluorobenzyl)-16,16,16-trifluoro-15,15-dimethyl-11-(4-((2-(8-(oxetan-3-yl)-3,8-diazabicyclo[3.2.1]octan-3-yl)pyrimidin-5-yl)ethynyl)benzyl)-3,6,13-trioxo-10-((((phosphonooxy)methoxy)carbonyl)oxy)-5-(1,1,1-trifluoro-2-methylpropan-2-yl)-2-oxa-4,7,8,12-tetraazahexadecan-14-yl)carbamate]: in series [7], the “bioavailability of compound D” value came to 5.5±2.6%.
Regarding `COC(=O)N[C@H](C(=O)N[C@@H](Cc1ccc(C#Cc2cnc(N3CC4CCC(C3)N4C3COC3)nc2)cc1)[C@H](CN(Cc1c(F)cc(-c2ccn(C(F)F)n2)cc1F)NC(=O)[C@@H](NC(=O)OC)C(C)(C)C(F)(F)F)OC(=O)c1cccnc1)C(C)(C)C(F)(F)F` [Example 5, (5S,10S,11S,14S)-8-(4-(1-(difluoromethyl)-1H-pyrazol-3-yl)-2,6-difluorobenzyl)-11-(4-((2-(8-(oxetan-3-yl)-3,8-diazabicyclo[3.2.1]octan-3-yl)pyrimidin-5-yl)ethynyl)benzyl)-3,6,13,16-tetraoxo-5,14-bis(1,1,1-trifluoro-2-methylpropan-2-yl)-2,17-dioxa-4,7,8,12,15-pentaazaoctadecan-10-yl nicotinate], the EC50 in series [1] (setting [8]) was determined as 1.14 µM. Moreover, the figures for the solubility at 24 h in series [2] (setting [9]) and in series [2] (setting [10]) were 89.2 µM (≈ 112 µg/mL) and under 1 µM, respectively. In addition, the “Human Pred Cl. (L/H/kg)” value in series [3] amounted to 0.28 L/H/kg. In addition, the “Rat. Pred. Cl. (L/H/kg)” value in series [4] is 0.58 L/H/kg.
